Test results: ChEMBL document CHEMBL1148036, “Novel nematocidal agents from Curcuma comosa” (1994)
≈ marks a conversion by molar mass, not a printed value.

Tested on: Caenorhabditis elegans
Assay: Nematocidal against Caenorhabditis elegans N2 assessed as motility after 16 hrs
Type: functional
Settings: N2, 16 h

| SMILES | EC95 [µg/mL] |
| --- | --- |
| OC(CC/C=C/c1ccccc1)CCc1ccccc1 (stereo not given) | 0.7 (≈ 2.63 µM) |
| O=C(CC/C=C/c1ccccc1)CCc1ccccc1 | 9 (≈ 34 µM) |
| O=C(CCc1ccccc1)C[C@@H](O)/C=C/c1ccccc1 | 1 (≈ 3.57 µM) |
| OC(/C=C/C=C/c1ccccc1)CCc1ccccc1 (stereo not given) | > 100 |
| CC(=O)OC(CC/C=C/c1ccccc1)CCc1ccccc1 (stereo not given) | 9 (≈ 29.2 µM) |
